According to patent publication US20200392116A1, “SUBSTITUTED HETEROCYCLES AS c-MYC TARGETING AGENTS” (NORTHWESTERN UNIVERSITY, priority 2019, published 2020):

Test: Potency code of Table 2 (assay not stated)

SMILES | Potency code
CCc1ccc(Oc2c(-c3ccc(OCc4ccc(Cl)cc4)cc3O)n[nH]c2CC)cc1 [NUCC-0196282] | + (>40 +)
Cn1nc(C(F)(F)F)cc1-c1ccc(OCc2ccc(Cl)cc2)cc1C#N [NUCC-0200812] | + (>40 +)
COc1cccc(-c2c(-c3ccc(OCc4ccc(Cl)cc4)cc3O)nn(C)c2C(F)(F)F)c1 [NUCC-0198311] | + (>40 +)
Cn1cc(-c2ccc(NCc3ccc(Cl)cc3)cn2)c(C(F)(F)F)n1 [NUCC-0200742] | + (>40 +)
Cn1cc(-c2ccoc2)c(-c2ccc(OCc3ccc(Cl)cc3)cc2O)n1 [NUCC-0198324] | + (>40 +)
Cn1nc(C(F)(F)F)cc1-c1ccc(O)c(-c2cc(C(F)(F)F)cc(C(F)(F)F)c2)c1O [NUCC-0200723] | ++ (30-40 ++)
CCc1ccc(Oc2c[nH]nc2-c2ccc(OCC3CCCCC3)cc2O)cc1 [NUCC-0176256] | + (>40 +)
Cn1nc(-c2ccc(OCCc3ccc(Cl)cc3)c(-c3cc(C(F)(F)F)cc(C(F)(F)F)c3)c2O)cc1C(F)(F)F [NUCC-0201026] | + (>40 +)
CCCCOc1ccc(-c2cc(C(F)(F)F)nn2C)c(O)c1-c1cncc(C(F)(F)F)c1 [NUCC-0201204] | +++ (10-30 +++)
CN/N=C(\C)c1cccc(-c2c(OCc3ccc(Cl)cc3)ccc(-c3cc(C(F)(F)F)nn3C)c2O)c1 [NUCC-0198404] | + (>40 +)
Cn1nc(-c2ccc(OCc3ccc(Cl)cc3)cc2O)c(-c2ccccc2)c1C(F)(F)F [NUCC-0198297] | + (>40 +)
CC(C)(C)OC(=O)NCCOc1ccc(-c2cc(C(F)(F)F)n[nH]2)c(O)c1-c1cncc(C(F)(F)F)c1 [NUCC-0201644] | + (>40 +)
Cc1[nH]nc(-c2ccc(OCc3ccc(Cl)cc3)cc2O)c1-c1ccccc1 [NUCC-0198298] | + (>40 +)
O=C(CCc1cn(CCOCCOCCOCC(=O)Nc2cccc3c2C(=O)N(C2CCC(=O)NC2=O)C3=O)nn1)NCCOc1ccc(-c2cc(C(F)(F)F)n[nH]2)c(O)c1-c1cncc(C(F)(F)F)c1 (stereo not drawn) [NUCC-0201660] | + (>40 +)
Cn1nc(C(F)(F)F)cc1-c1ccc(OCc2ccc([N+](=O)[O-])cc2)c(-c2cc(C(F)(F)F)cc(C(F)(F)F)c2)c1O [NUCC-0201648] | + (>40 +)
Cn1nc(-c2ccc(OCc3ccc(Cl)cc3)cc2O)c(Oc2ccccc2Cl)c1C(F)(F)F [NUCC-0196304] | +++ (10-30 +++)
CCc1ccc(Oc2c(-c3ccc(OCc4ccc(Cl)cc4)cc3)nn(C)c2C(F)(F)F)cc1 [NUCC-0196353] | + (>40 +)
CC(C)CCOc1ccc(-c2cc(C(F)(F)F)[nH]n2)c(O)c1-c1cncc(C(F)(F)F)c1 [NUCC-0201636] | + (>40 +)
Oc1cc(OCc2ccc(Cl)cc2)ccc1-c1n[nH]c(C(F)(F)F)c1Oc1cccc(F)c1 [NUCC-0196301] | + (>40 +)
Cn1nc(-c2ccc(OCCN3CCOCC3)cc2O)c(Oc2ccccc2Cl)c1C(F)(F)F [NUCC-0196341] | + (>40 +)
Cn1nc(-c2ccc(OCCCNC(=O)OC(C)(C)C)c(-c3ccc(Cl)c(C(F)(F)F)c3)c2O)cc1C(F)(F)F [NUCC-0201658] | ++ (30-40 ++)
CC(C)CCOc1ccc(-c2cc(C(F)(F)F)nn2C)c(O)c1-c1cncc(C#N)c1 [NUCC-0201208] | ++++ (<10 ++++)
Cn1cc(-c2cnc(OCc3ccc(Cl)cc3)cn2)c(C(F)(F)F)n1 [NUCC-0200747] | + (>40 +)
Oc1c(-c2cc(C(F)(F)F)[nH]n2)ccc(OCc2ccc(Cl)cc2)c1-c1ccc(F)c(C(F)(F)F)c1 [NUCC-0200734] | + (>40 +)
COc1ccc(-c2c(-c3ccc(OCc4ccc(Cl)cc4)cc3O)nn(C)c2C)cc1 [NUCC-0198307] | + (>40 +)
Cn1nc(-c2ccc(OCc3ccc(Cl)cc3)c(-c3ccc(Cl)c(C(F)(F)F)c3)c2O)cc1C(F)(F)F [NUCC-0200733] | + (>40 +)
CCCCOc1ccc(-c2cc(C(F)(F)F)n(C)n2)c(O)c1-c1ccc(Cl)c(C(F)(F)F)c1 [NUCC-0201227] | ++++ (<10 ++++)
